The values below come from patent US8378117B2 (priority 2005, dated 2013).

Experiment [1] concerns the target T1, CB1 receptor (Homo sapiens, UniProt P21554).
T1 construct: expressed in transfected cells
Nature of the experiment: Binding assay for CB1 agonists or inverse agonists (SK-N-MC membranes, [3H]-CP-55,940). The conditions noted are these: for inhibition at 0.2 µM: read-out: CB1 receptor binding percent inhibition, test concentration 0.2 μM (footnote 2); for CB1 receptor binding average percent inhibition: value shown is an average percent inhibition (footnote 5), concentration not given; for inhibition at 0.25 µM: read-out: CB1 receptor binding percent inhibition, test concentration 0.25 μM (footnote 8). The method, boiled down: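 Membranes from SK-N-MC cells stably expressing human CB1 incubated with compound and [3H]-CP-55,940 ([…]) for 90 min at 30° C in Tris-HCl pH 7.5, MgCl2, EDTA, fatty-acid-free BSA. Non-specific binding defined with 10 uM WIN 55,212; filtration, scintillation count; IC50 by linear regression.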

For another experiment, the target named is T2, CB2 receptor (Homo sapiens, UniProt P34972).
T2 construct: expressed in transfected cells
T2 sequence (P34972 whole entry): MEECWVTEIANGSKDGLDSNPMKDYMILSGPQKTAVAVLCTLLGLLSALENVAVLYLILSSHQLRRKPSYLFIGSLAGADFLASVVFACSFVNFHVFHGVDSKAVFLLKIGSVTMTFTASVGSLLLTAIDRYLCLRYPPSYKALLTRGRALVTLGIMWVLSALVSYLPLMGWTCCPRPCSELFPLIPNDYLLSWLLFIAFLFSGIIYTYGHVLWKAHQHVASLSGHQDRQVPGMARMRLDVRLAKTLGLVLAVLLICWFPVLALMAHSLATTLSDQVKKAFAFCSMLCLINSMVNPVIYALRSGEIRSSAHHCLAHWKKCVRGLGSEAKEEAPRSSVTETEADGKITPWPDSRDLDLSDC
Nature of the experiment: Binding assay for CB2 agonists or inverse agonists (SK-N-MC membranes, [3H]-CP-55,940). The conditions noted are these: for inhibition at 0.2 µM: read-out: CB2 receptor binding percent inhibition, test concentration 0.2 μM (footnote 2); for CB2 receptor binding percent inhibition: test concentration not stated; for inhibition at 0.25 µM: read-out: CB2 receptor binding percent inhibition, test concentration 0.25 μM (footnote 8). The procedure, abridged:
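Membranes from SK-N-MC cells stably expressing human CB2 were incubated with radioligand and test compounds for 90 min at 30 °C in Tris-HCl buffer, pH 7.5, with MgCl2, EDTA and fatty-acid-free BSA. Filter-bound radioactivity was counted; IC50 was derived by linear regression of percent inhibition.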

Experiment [2] has as its target T1, CB1 receptor. Put plainly: cell-based. The procedure, abridged: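 SK-N-MC cells stably co-expressing human CB1 and a CRE-β-galactosidase reporter; forskolin-induced β-gal activity measured after compound treatment, as % of vehicle-treated cells (100%). EC50 by linear regression from concentration series; otherwise % change at a single concentration.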
[3] abbreviates: Cannabinoid CB1 Receptor Binding IC50, calculated by linear regression from percent inhibition at various test concentrations.
[4] abbreviates: CB1 Receptor Functional Inverse Agonist EC50, forskolin induced β-galactosidase activity, SK-N-MC cells.
Setting [5] is: forskolin induced β-galactosidase activity, SK-N-MC cells, read-out: CB1 Receptor Functional Inverse Agonist EC50.
Setting [6] is: read-out: CB1 receptor binding percent inhibition, test concentration 1 μM (footnote 1).

Read-outs that look alike come from different tables or passages of the source.

T1 sequence (P21554 whole entry): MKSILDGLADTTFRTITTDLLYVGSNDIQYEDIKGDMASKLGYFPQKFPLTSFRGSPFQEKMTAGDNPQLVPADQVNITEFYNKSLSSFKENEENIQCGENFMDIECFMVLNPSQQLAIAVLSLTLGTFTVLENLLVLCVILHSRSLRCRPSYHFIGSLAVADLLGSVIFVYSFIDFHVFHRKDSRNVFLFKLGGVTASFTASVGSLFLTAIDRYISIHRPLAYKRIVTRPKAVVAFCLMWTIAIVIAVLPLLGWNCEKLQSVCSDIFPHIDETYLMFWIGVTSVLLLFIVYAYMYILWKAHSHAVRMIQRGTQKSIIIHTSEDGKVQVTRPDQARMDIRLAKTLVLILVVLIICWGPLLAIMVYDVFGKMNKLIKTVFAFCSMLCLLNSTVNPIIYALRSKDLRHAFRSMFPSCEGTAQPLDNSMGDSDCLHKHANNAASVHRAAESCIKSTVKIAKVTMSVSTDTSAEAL

Consider `C[C@H](NC(=O)c1nn(-c2cc(Cl)ccc2Cl)c2c1CCCC/C2=C\c1ccc(Cl)cc1)C1CCCCC1` [Cpd 197, (8E)-8-(4-chloro-benzylidene)-1-(2,5-dichloro-phenyl)-1,4,5,6,7,8-hexahydro-cycloheptapyrazole-3-carboxylic acid [(1S)-1-cyclohexyl-ethyl]-amide], for which the IC50 at CB1 receptor [1] (setting [3]) was 30 nM. The inhibition at 0.2 µM stood at 83% at CB1 receptor [1] and 67% on CB2 receptor. Also, a half-maximal response at CB1 receptor [2] (setting [4]) (EC50) required 3 nM.

Regarding `O=C(NN1CCCCC1)c1nn(-c2ccc(Cl)cc2Cl)c2c1CCCCC2Cc1ccc(F)cc1` (stereo not shown) [Cpd 85, 1-(2,4-dichloro-phenyl)-8-(4-fluoro-benzyl)-1,4,5,6,7,8-hexahydro-cycloheptapyrazole-3-carboxylic acid piperidin-1-ylamide], the “CB1 receptor binding average percent inhibition” value at CB1 receptor [1] was “^(5)39%”. For the same compound, the “CB2 receptor binding percent inhibition” value on CB2 receptor came to 5%. Moreover, the EC50 on CB1 receptor [2] (setting [5]) is 300 nM.

For `O=C(NC1CCC1)c1nn(-c2ccc(Cl)cc2Cl)c2c1CCCCC2Cc1cccc(F)c1` (stereo not shown) [Cpd 41, 1-(2,4-dichloro-phenyl)-8-(3-fluoro-benzyl)-1,4,5,6,7,8-hexahydro-cycloheptapyrazole-3-carboxylic acid cyclobutylamide], the half-inhibitory concentration (IC50) at CB1 receptor [1] (setting [3]) is 500 nM. Further, the inhibition at 1 µM on CB1 receptor [1] (setting [6]) came to 68%. For the same compound, the “CB2 receptor binding percent inhibition” value on CB2 receptor stood at 46%. The compound further registered an EC50 at CB1 receptor [2] (setting [4]) of 100 nM.

For `O=C(NS(=O)(=O)c1ccccc1)c1nn(-c2ccc(Cl)cc2Cl)c2c1CCCC/C2=C\c1ccc(Cl)cc1` [Cpd 136, (8E)-N-[8-(4-chloro-benzylidene)-1-(2,4-dichloro-phenyl)-1,4,5,6,7,8-hexahydro-cycloheptapyrazole-3-carbonyl]-benzenesulfonamide], the figures for the inhibition at 0.25 µM at CB1 receptor [1] and on CB2 receptor were 39% and 18%, respectively. In addition, the EC50 at CB1 receptor [2] (setting [4]) was 30 nM.

With `O=C(NN1CCOCC1)c1nn(-c2ccc(F)cc2F)c2c1CCCCC2Cc1cccc(F)c1` (stereo not shown) [Cpd 116, 1-(2,4-difluoro-phenyl)-8-(3-fluoro-benzyl)-1,4,5,6,7,8-hexahydro-cycloheptapyrazole-3-carboxylic acid morpholin-4-ylamide], the inhibition at 1 µM at CB1 receptor [1] (setting [6]) stood at 14%. Further, at CB2 receptor, the “CB2 receptor binding percent inhibition” value was 24%. Also, on CB1 receptor [2] (SK-N-MC cells, forskolin induced β-galactosidase activity, read-out: CB1 Receptor Functional Agonist EC50), the EC50 stood at 300 nM.

Take `O=C(c1nn(-c2ccc(Cl)cc2Cl)c2c1CCCC/C2=C\c1ccc(F)cc1)N1CCCC1c1ccccn1` (stereo not shown) [Cpd 188, (8E)-[1-(2,4-dichloro-phenyl)-8-(4-fluoro-benzylidene)-1,4,5,6,7,8-hexahydro-cycloheptapyrazol-3-yl]-(2-pyridin-2-yl-pyrrolidin-1-yl)-methanone]: the half-inhibitory concentration (IC50) at CB1 receptor [1] (setting [3]) is 100 nM. Moreover, the inhibition at 0.2 µM was determined as 64% on CB1 receptor [1] and 36% at CB2 receptor. This compound gave a concentration for a half-maximal effect (EC50) at CB1 receptor [2] (setting [4]) of 10 nM.

In the case of `CC(NC(=O)c1nn(-c2ccc(Cl)cc2Cl)c2c1CCCC/C2=C\c1ccc(F)cc1)c1ccccn1` (stereo not shown) [Cpd 224, (8E)-1-(2,4-dichloro-phenyl)-8-(4-fluoro-benzylidene)-1,4,5,6,7,8-hexahydro-cycloheptapyrazole-3-carboxylic acid (1-pyridin-2-yl-ethyl)-amide], the IC50 at CB1 receptor [1] (setting [3]) was 8 nM. Further, the inhibition at 0.2 µM at CB1 receptor [1] worked out at 87%; on CB2 receptor, 4%. At CB1 receptor [2] (setting [4]), this compound had an EC50 of 4 nM.

With `O=C(N[C@H]1c2ccccc2C[C@H]1O)c1nn(-c2ccc(Cl)cc2Cl)c2c1CCCC/C2=C\c1ccc(F)cc1` [Cpd 208, (8E)-1-(2,4-dichloro-phenyl)-8-(4-fluoro-benzylidene)-1,4,5,6,7,8-hexahydro-cycloheptapyrazole-3-carboxylic acid [(1S,2R)-2-hydroxy-indan-1-yl]-amide], the IC50 on CB1 receptor [1] (setting [3]) was 70 nM. For the same compound, the inhibition at 0.2 µM came to 76% at CB1 receptor [1] and 31% on CB2 receptor. At CB1 receptor [2] (setting [4]), the concentration giving a half-maximal response (EC50) was determined as 10 nM.

`O=C(N[C@H](CCl)c1ccccc1)c1nn(-c2ccc(F)cc2F)c2c1CCCCC2Cc1ccc(F)cc1` (stereo partly drawn) [Cpd 172, 1-(2,4-difluoro-phenyl)-8-(4-fluoro-benzyl)-1,4,5,6,7,8-hexahydro-cycloheptapyrazole-3-carboxylic acid [(1S)-2-chloro-1-phenyl-ethyl]-amide]: the results for the inhibition at 0.2 µM at CB1 receptor [1] and on CB2 receptor were 64% and 41%, respectively. On CB1 receptor [2] (setting [4]), this compound registered an EC50 of 100 nM.

For `C[C@H](NC(=O)c1nn(Cc2ccccc2)c2c1CCCCC2c1ccccc1)c1ccccc1` (stereo partly drawn) [Cpd 48, 1-benzyl-8-phenyl-1,4,5,6,7,8-hexahydro-cycloheptapyrazole-3-carboxylic acid [(1S)-1-phenyl-ethyl]-amide], at CB1 receptor [1] (calculated by linear regression from percent inhibition at various test concentrations, read-out: Cannabinoid CB1 Receptor Binding IC50), the concentration for half-maximal inhibition (IC50) is 300 nM. For the same compound, the inhibition at 1 µM at CB1 receptor [1] (setting [6]) was determined as 63%. The “CB2 receptor binding percent inhibition” value on CB2 receptor is listed as 42%. On CB1 receptor [2] (setting [5]), the EC50 was 300 nM.

For the compound `COC(=O)[C@@H](Cc1ccc(O)cc1)NC(=O)c1nn(-c2ccc(Cl)cc2Cl)c2c1CCCCC2Cc1ccc(F)cc1` (stereo partly drawn) [Cpd 81, (2R)-2-{[1-(2,4-dichloro-phenyl)-8-(4-fluoro-benzyl)-1,4,5,6,7,8-hexahydro-cycloheptapyrazole-3-carbonyl]-amino}-3-(4-hydroxy-phenyl)-propionic acid methyl ester], on CB1 receptor [1], the “CB1 receptor binding average percent inhibition” value is “^(5)42%”. Besides, the “CB2 receptor binding percent inhibition” value on CB2 receptor amounted to 28%. On CB1 receptor [2] (setting [5]), the 50% effective concentration (EC50) amounted to 300 nM.

As to `C[C@@H](NC(=O)c1nn(-c2ccccc2Cl)c2c1CCCC/C2=C\c1ccc(Cl)cc1)C1CCCCC1` [Cpd 189, (8E)-8-(4-chloro-benzylidene)-1-(2-chloro-phenyl)-1,4,5,6,7,8-hexahydro-cycloheptapyrazole-3-carboxylic acid [(1R)-1-cyclohexyl-ethyl]-amide], on CB1 receptor [1] (setting [3]), the concentration for half-maximal inhibition (IC50) is 50 nM. In addition, the results for the inhibition at 0.2 µM at CB1 receptor [1] and at CB2 receptor were 78% and 17%, respectively. Further, on CB1 receptor [2] (setting [4]), the concentration for a half-maximal effect (EC50) was determined as 10 nM.

As for `COC(=O)[C@@H](Cc1ccc(O)cc1)NC(=O)c1nn(C2CCCCC2)c2c1CCCCC2Cc1ccc(F)cc1` (stereo partly drawn) [Cpd 83, (2R)-2-{[1-cyclohexyl-8-(4-fluoro-benzyl)-1,4,5,6,7,8-hexahydro-cycloheptapyrazole-3-carbonyl]-amino}-3-(4-hydroxy-phenyl)-propionic acid methyl ester], the IC50 at CB1 receptor [1] (setting [3]) is 100 nM; on CB2 receptor (Cannabinoid CB2 Receptor Binding IC50, calculated by linear regression from percent inhibition at various test concentrations) it was 10 nM. Besides, the “CB1 receptor binding average percent inhibition” value at CB1 receptor [1] is 90%. The “CB2 receptor binding average percent inhibition” value on CB2 receptor (value shown is an average percent inhibition (footnote 5), concentration not given) turned out to be 98%. On CB1 receptor [2] (CB1 Receptor Functional Agonist EC50, SK-N-MC cells, forskolin induced β-galactosidase activity), this compound yielded an EC50 of 1700 nM.

On to `O=C(NN1CCCCC1)c1nn(-c2ccc(Cl)cc2Cl)c2c1CCCC/C2=C\c1ccc(F)cc1` [Cpd 150, (8E)-1-(2,4-dichloro-phenyl)-8-(4-fluoro-benzylidene)-1,4,5,6,7,8-hexahydro-cycloheptapyrazole-3-carboxylic acid piperidin-1-ylamide], for which the IC50 at CB1 receptor [1] (setting [3]) is 100 nM. In addition, the inhibition at 0.2 µM came to 65% at CB1 receptor [1] and 3% on CB2 receptor. On CB1 receptor [2] (setting [4]), this compound yielded an EC50 of 20 nM.

Take `O=C(N[C@H](CO)c1ccccc1)c1nn(-c2ccc(Cl)cc2Cl)c2c1CCCC/C2=C\c1ccc(F)cc1` [Cpd 204, (8E)-1-(2,4-dichloro-phenyl)-8-(4-fluoro-benzylidene)-1,4,5,6,7,8-hexahydro-cycloheptapyrazole-3-carboxylic acid [(1S)-2-hydroxy-1-phenyl-ethyl]-amide]: on CB1 receptor [1] (setting [3]), the half-maximal inhibitory concentration (IC50) was 30 nM. In addition, the inhibition at 0.2 µM on CB1 receptor [1] is 88%; on CB2 receptor it was 34%. Further, the EC50 on CB1 receptor [2] (setting [4]) is 3 nM.

As for `C[C@@H](NC(=O)c1nn(-c2ccc(Cl)cc2Cl)c2c1CCCC/C2=C\c1ccc(Cl)cc1)C1CCCCC1` [Cpd 132, (8E)-8-(4-chloro-benzylidene)-1-(2,4-dichloro-phenyl)-1,4,5,6,7,8-hexahydro-cycloheptapyrazole-3-carboxylic acid [(1R)-1-cyclohexyl-ethyl]-amide], the IC50 at CB1 receptor [1] (setting [3]) was 5 nM. Moreover, the inhibition at 0.015 µM on CB1 receptor [1] (read-out: CB1 receptor binding percent inhibition, test concentration 0.015 μM (footnote 7)) stood at 64%. For the same compound, the inhibition at 0.25 µM on CB1 receptor [1] is 94%; on CB2 receptor it was 42%. In addition, the EC50 on CB1 receptor [2] (setting [4]) came to 10 nM.

For the compound `O=C(c1nn(-c2ccc(F)cc2F)c2c1CCCCC2Cc1cccc(F)c1)N1CCOCC1` (stereo not shown) [Cpd 118, [1-(2,4-difluoro-phenyl)-8-(3-fluoro-benzyl)-1,4,5,6,7,8-hexahydro-cycloheptapyrazol-3-yl]-morpholin-4-yl-methanone], the inhibition at 1 µM on CB1 receptor [1] (read-out: CB1 receptor binding percent inhibition) turned out to be 4%. In addition, on CB2 receptor, the “CB2 receptor binding percent inhibition” value is 31%. Moreover, a half-maximal response at CB1 receptor [2] (setting [4]) (EC50) required 100 nM.

One may read the IC50 as the concentration that inhibits the measured activity by half. For orientation: EC50 means the midpoint of the concentration-response curve.
